These results are taken from patent US9192589B2, “Chalcones as enhancer of antimicrobial agents” (priority 2009, dated 2015).

≈ marks a conversion by molar mass, not a printed value. Read-outs that look alike come from different tables or passages of the source.

The test system of one assay is A. viscosus. In words: MIC assay using A. viscosus as reference organism (96-well, OD610). It counts as cell-based. As to conditions: Actinomyces viscosus, compound alone, 0.5x TSB, overnight 37° C. How it is done:
(§1) Actinomyces viscosus (ATCC#43146) was grown in trypticase soy broth supplemented with 0.6% yeast extract (TSB-YE) at 37° C., static culture. For mixed species assays, the source of bacteria was a continuous culture chemostat inoculated with A. viscosus, Lactobacillus casei (ATCC #334), Streptococcus oxalis (ATCC #35037), Fusobacterium nucleatum (ATCC #10953), and Veilonella parvula (ATCC #17745). This mixed culture was maintained in a specialized complex medium in a continuous culture chemostat at 37° C.

A further assay relates to A. Viscosus biofilm. In words: Inhibition of single species biofilm formation (BEC50, crystal violet). As to conditions: 24 hours. It counts as cell-based, Actinomyces viscosus. On the procedure: as §1
To assess the bioenhancing ability of CK-4, inhibition of single species biofilm formation tests were conducted. Actives of interest were plated in the first column of a sterile 384-well culture plate and serial twofold dilutions were performed across the plate in 0.5× TSB. First generation cultures of A. Viscosus bacteria were grown overnight in TSB-YE. Cultures were diluted to an OD610˜0.2 in 0.5×TSB and plated in the wells containing serial dilutions of actives. Plates were incubated for 24 hours at 37° C. to allow growth and biofilm formation to occur.
Following incubation, supernatants were removed from the plate and remaining biofilms were stained with 0.03% Grain's crystal violet. Stained plates were read on a Perkin Elmer EnVision microplate reader for absorbance at 590 nm.

The next assay concerns Fusobacterium nucleatum. In words: MIC of antibacterial agents alone and in combination with CK-4. It is filed as cell-based. Conditions: F. nucleatum. From the text:
(§2) The checkerboard method is the most frequently used method to access the antimicrobial combinations in vitro. The term “checkerboard” refers to the pattern (of tubes or microtiter plate wells) formed by multiple dilutions of two drugs being tested (Eliopoulos G M, Moellering R C. Antimicrobial Combinations, in: Antibiotics in Laboratory Medicine: USA: Williams & Wilkins). In the present study the checkerboard consisted of columns in which each tube (or well) contains the same amount of the standard drug (antibacterial/antifungal/anti-TB/antiviral) being diluted along the x-axis and rows in which each tube (or well) contains the same amount of the potentiator being diluted on the y-axis. As a result each square in the checkerboard (which represents one tube/well or plate) contained a unique combination of the standard drug and potentiator. The concentration range of standard drug in the present study was 64 μg/ml to 0.03 μg/ml, whereas the potentiator was tested in the range of 500 μg/ml to 0.2 μg/ml. This checkerboard technique can be performed with liquid or semisolid (agar) media.
(§3) In the agar method the agar (Mueller Hinton agar, Middlebrook 7H10 agar) was autoclaved and allowed to cool to 55° C. to 50° C. The combination of the standard drug and the potentiator was added to the agar. Serial two fold dilutions of each of standard drug and the potentiator were prepared in appropriate solvents. In order to maintain the desired concentrations of both agar and drugs, and to rule out the effect of solvent, the volume of solvent (containing standard drug or potentiator) added to agar was kept small (i.e. ≦5% of the total volume). After the agar plates have been poured and allowed to dry, the bacteria to be tested were applied to the surface of agar with a replicating device designed to deliver a standard inoculum (approx 10^4 cfu/spot). The plates were incubated at 37° C. for 24 hrs (3 weeks in case of Mycobacterium tuberculosis).
(§4) The above-mentioned checkerboard was also performed with liquid media in a microtiter plate format. This method was used to study the combination of antibacterial/antifungal/antiviral drugs with potentiator.
(§5) Minimum Inhibitory Concentration (MIC) of triclosan alone and in combination with the above mentioned chalcone compound was performed against Streptococcus mutans, Actinomyces viscosus and Fusobacterium nucleatum, using method described in the study design.
(§6) Minimum Inhibitory Concentration (MIC) of magnolol alone and in combination with the above mentioned chalcone compound was performed against Streptococcus mutans, Actinomyces viscosus and Fusobacterium nucleatum, using method described in the study design.
(§7) Minimum Inhibitory Concentration (MIC) of honokiol alone and in combination with the above mentioned chalcone compound was performed against Streptococcus mutans, Actinomyces viscosus and Fusobacterium nucleatum, using method described in the study design.

Another assay relates to Streptococcus mutans. The assay is described as above. It is filed as cell-based. Conditions: S. mutans.
Excerpt: as §2, §3, §4, §5, §6, §7

A further assay has as its system Actinomyces viscosus. The description is as above. It is filed as cell-based. Conditions: A. viscosus.
Excerpt: as §2, §3, §4, §5, §6, §7

Assay [1] relates to Streptococcus mutans, Actinomyces viscosus and Fusobacterium nucleatum. The assay is described as follows: Fold reduction in MIC over the three oral bacteria. It is filed as cell-based. As to conditions: in combination with CK-4; over S. mutans, A. viscosus and F. nucleatum.
Excerpt: as §2, §3, §4, §5
Minimum Inhibitory Concentration (MIC) of magnolol alone and in combination with the above mentioned chalcone compound was performed against Streptococcus mutans, Actinomyces viscosus and Fusobacterium nucleatum, using method described in the study design. […]

The MIC is the lowest concentration that inhibits growth of the organism. `COc1cc(/C=C/C(=O)c2ccccc2)ccc1O` [CK-4, 3-(4′-Hydroxy-3′-methoxy-phenyl)-1-phenyl-prop-2-ene-1-one] had an MIC in the assay with A. viscosus of over 100 µg/mL.

As to `Oc1cc(Cl)ccc1Oc1ccc(Cl)cc1Cl` [Triclosan, triclosan], the MIC against A. viscosus was determined as 3.5 µg/mL (≈ 12.1 µM); with Fusobacterium nucleatum (with CK-4 6.25 μg/ml), 1.0 µg/mL; in the assay with Fusobacterium nucleatum (with CK-4 12.5 μg/ml), 1.0 µg/mL; in the assay on Fusobacterium nucleatum (with CK-4 25 μg/ml), 0.5 µg/mL; in the assay with Fusobacterium nucleatum (Fusobacterium nucleatum, agent alone, read-out: MIC) it was 2 µg/mL; in the assay with Streptococcus mutans (with CK-4 6.25 μg/ml) it was 2.0 µg/mL. For the same molecule, the “MIC” value stood at 1.0 µg/mL in the assay with Streptococcus mutans (with CK-4 12.5 μg/ml); 0.5 µg/mL in the assay on Streptococcus mutans (with CK-4 25 μg/ml); 4 µg/mL with Streptococcus mutans (Streptococcus mutans, agent alone, read-out: MIC); 2.0 µg/mL with Actinomyces viscosus (with CK-4 6.25 μg/ml); 1.0 µg/mL with Actinomyces viscosus (with CK-4 12.5 μg/ml); 0.5 µg/mL with Actinomyces viscosus (with CK-4 25 μg/ml). In addition, the MIC in the assay with Actinomyces viscosus (Actinomyces viscosus, agent alone, read-out: MIC) was determined as 4 µg/mL. In addition, the BEC50 alone with A. Viscosus biofilm (agent alone) is reported as 1.95. In the assay on A. Viscosus biofilm (with CK-4), the “BEC50 with CK-4” value came out at 0.98. The “reduction in MIC in combination with chalcone compound” value in assay [1] is on record as “Four to eight-fold”.
